Measurements reported in patent US20250000874A1, “BACTERIAL METABOLITES AND THEIR USE IN REDUCING INFLAMMATION” (LOYOLA UNIVERSITY OF CHICAGO, priority 2023, published 2025).
“Also recorded” adds a separate entry of the source.

Tested on: dry eye disease model
Assay: Murine experimental dry eye (DED) model, ICES
Format: in vivo, mouse
Text: FIG. 12. Corneal Florescein Staining with JE-treated Experimental Dry Eye. Mean corneal staining score with JE/control topical treatment (4 times/day) starting 3 weeks after housing in ICES. Group 1: Normal control (non DED); group 2: Dry Eye treated with JE (JE+DED); Group 3: Dry Eye treated with vehicle (control DED). P value: *: <0.05. One of two experiments is shown.
FIG. 25. Pro-Inflammatory IL-6 Cytokine Expression in Corneal Tissues Isolated from Control, Vehicle Control, and Treatment Groups. Corneal samples from the three groups were isolated, stabilized in RNA later, and stored at-80. Corneal samples were homogenized, and RNA was purified using RNAeasy mini-kit. A total of 0.5 μg-1 μg RNA was yielded. RT-qPCR was performed. Values were normalized to GAPDH control, and fold induction was measured as 2-ΔΔCT. One of two experiments is shown.
We further tested if JE reduced corneal tissue damage in a murine DED model. Thus, normal C57BL/6J mice were maintained in relative humidity 60% to 80%, no airflow at 21-23° C. as normal control (Group 1). The experimental dry eye was induced by using an Intelligently Controlled Environmental System (ICES). Dry eye mice (Group 2 and Group 3) were housed in ICES with relative humidity at 13+4%, airflow of 2.2+0.2 m/s, and temperature of 21-23° for 3 weeks. Group 2 mice were treated with 10 μL JE at 50 μM 0.35% (v/v) DMSO in PBS and group 3 (vehicle control) were treated with 10 μL of 0.35% (v/v) DMSO in PBS, 4 time/day topically for 14 days. Corneal fluorescein staining was evaluated at week 0, 3 and 5. The stained area was assessed according to a standardized grading system ranging from 0 to 4, with the corneal surface divided into five regions. Then the total scores from the five regions were analyzed. […] The data strongly support that JE (3,3-Difluoro-5-alpha-androstan-17-beta-yl acetate) can be used as therapeutic agent for non-infectious inflammatory diseases. […]
This pattern of staining points to significant corneal damage and inflammation. […] Next, the IL-6 cytokine expression was measured in corneal samples using RT-qPCR. […]

CC(=O)O[C@@H]1CC[C@H]2[C@H]3CC[C@H]4CC(F)(F)CC[C@]4(C)[C@H]3CC[C@]12C [JE, 3,3-Difluoro-5-alpha-androstan-17-beta-yl acetate]
corneal fluorescein staining score (10 μL JE 50 μM topically 4 times/day for 14 days after 3 weeks in ICES, vs vehicle control, day 35): significantly reduced | IL-6 expression in corneal samples (RT-qPCR) (JE eye drops four times a day for 14 days): decreased; also recorded: did not return to the baseline | surface area of corneal damage (JE eye drops four times a day for 14 days, relative to vehicle control): decrease
